{
  "source": "patent US20080299076A1",
  "about": "“Compunds and compositions that cause non-apoptotic cell death and uses thereof” (priority 2006, published 2008)",
  "key": {"SK-UT": {"test_system": "SK-UT", "experiment": "Response of tumor cell lines to erastin (dose-response)", "assay_type": "cell-based", "experimental": "(§1) Given that oncogenic RAS activates at least four downstream pathways, analysis was performed to identify which downstream effects were necessary for erastin sensitivity. In certain embodiments, the invention provides that erastin inhibits growth and kills genuine tumor cells with RAS mutations. In other embodiments, the invention provides measures of the dose-response of 29 tumor cell lines to erastin, wherein there is at least 50% inhibition of viability in 18 of the cell lines (Table 4). Numerous sarcoma-derived tumor cell lines were sensitive to erastin, consistent with the fact that erastin was discovered in an engineered tumor cell line created from human fibroblasts."}, "Hs 925.T": {"test_system": "Hs 925.T", "experiment": "Response of tumor cell lines to erastin (dose-response)", "assay_type": "cell-based", "experimental": "as §1"}, "HCT 116": {"test_system": "HCT 116", "experiment": "Response of tumor cell lines to erastin (dose-response)", "assay_type": "cell-based", "conditions": "HCT 116, colorectal carcinoma", "experimental": "as §1"}, "TC71": {"test_system": "TC71", "experiment": "Response of tumor cell lines to erastin (dose-response)", "assay_type": "cell-based", "experimental": "as §1"}, "HOS": {"test_system": "HOS", "experiment": "Response of tumor cell lines to erastin (dose-response)", "assay_type": "cell-based", "experimental": "as §1"}, "SK-ES-1": {"test_system": "SK-ES-1", "experiment": "Response of tumor cell lines to erastin (dose-response)", "assay_type": "cell-based", "experimental": "as §1"}, "A549": {"test_system": "A549", "experiment": "Response of tumor cell lines to erastin (dose-response)", "assay_type": "cell-based", "conditions": "A549, lung carcinoma", "experimental": "as §1"}, "Hs51.T": {"test_system": "Hs51.T", "experiment": "Response of tumor cell lines to erastin (dose-response)", "assay_type": "cell-based", "experimental": "as §1"}, "LNCaP": {"test_system": "LNCaP", "experiment": "Response of tumor cell lines to erastin (dose-response)", "assay_type": "cell-based", "experimental": "as §1"}, "SW872": {"test_system": "SW872", "experiment": "Response of tumor cell lines to erastin (dose-response)", "assay_type": "cell-based", "experimental": "as §1"}, "HL-60": {"test_system": "HL-60", "experiment": "Response of tumor cell lines to erastin (dose-response)", "assay_type": "cell-based", "experimental": "as §1"}, "SK-N-MC": {"test_system": "SK-N-MC", "experiment": "Response of tumor cell lines to erastin (dose-response)", "assay_type": "cell-based", "experimental": "as §1"}, "TC32": {"test_system": "TC32", "experiment": "Response of tumor cell lines to erastin (dose-response)", "assay_type": "cell-based", "experimental": "as §1"}, "U973": {"test_system": "U973", "experiment": "Response of tumor cell lines to erastin (dose-response)", "assay_type": "cell-based", "experimental": "as §1"}, "SJSA-1": {"test_system": "SJSA-1", "experiment": "Response of tumor cell lines to erastin (dose-response)", "assay_type": "cell-based", "experimental": "as §1"}, "MX2": {"test_system": "MX2", "experiment": "Response of tumor cell lines to erastin (dose-response)", "assay_type": "cell-based", "experimental": "as §1"}, "SVR": {"test_system": "SVR", "experiment": "Response of tumor cell lines to erastin (dose-response)", "assay_type": "cell-based", "experimental": "as §1"}, "EWS502": {"test_system": "EWS502", "experiment": "Response of tumor cell lines to erastin (dose-response)", "assay_type": "cell-based", "experimental": "as §1"}, "HeLa": {"test_system": "HeLa", "experiment": "Response of tumor cell lines to erastin (dose-response)", "assay_type": "cell-based", "experimental": "as §1"}, "SW982": {"test_system": "SW982", "experiment": "Response of tumor cell lines to erastin (dose-response)", "assay_type": "cell-based", "conditions": "SW982, synovial sarcoma", "experimental": "as §1"}, "SK-LMS-1": {"test_system": "SK-LMS-1", "experiment": "Response of tumor cell lines to erastin (dose-response)", "assay_type": "cell-based", "experimental": "as §1"}, "murine VDAC3": {"biological_target": "T1, murine VDAC3 (Mus musculus, UniProt Q60931)", "T1 construct": "expressed in transfected cells; host or cells: yeast (S. cerevisiae) with murine VDAC3 in place of yeast VDAC; isolated mitochondria", "T1 sequence (Q60931 1-283)": "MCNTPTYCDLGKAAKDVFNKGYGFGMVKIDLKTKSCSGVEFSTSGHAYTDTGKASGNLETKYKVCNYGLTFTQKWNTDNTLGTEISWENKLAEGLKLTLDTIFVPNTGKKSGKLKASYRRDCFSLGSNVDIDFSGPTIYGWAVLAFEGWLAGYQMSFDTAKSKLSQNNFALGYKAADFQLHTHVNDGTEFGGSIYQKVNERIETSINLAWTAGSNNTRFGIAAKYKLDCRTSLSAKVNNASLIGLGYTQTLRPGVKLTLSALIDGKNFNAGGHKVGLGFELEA", "experiment": "NADH oxidation assay in mitochondria from yeast expressing VDAC3", "assay_type": "biochemical", "conditions": "mitochondria from yeast expressing VDAC3 in place of yeast VDAC", "experimental": "In certain embodiments, mitochondria can be purified from yeast that had been engineered to express murine or human VDAC3 in place of yeast VDAC.\nMitochondria were isolated from yeast expressing murine VDAC3 in place of yeast VDAC. The rate of NADH oxidation by an inner membrane NADH dehydrogenase was determined by measuring the change in NADH absorbance over time. Mitochondria with a disrupted outer membrane show an increased rate of NADH oxidation (red, shocked) compared to untreated mitochondria (green).\nNADH oxidation in the mitochondria was measured by resuspending mitochondria isolated from yeast in R-buffer (0.65 M sucrose, 10 mM HEPES (pH 7.5), 10 mM KH2PO4, 5 mM KCl, 5 mM, MgCl2) to a final concentration of 100 μg/ml. Mitochondrial concentration was measured by dissolving mitochondria in 0.6% SDS and reading absorbance at 280 nm. The mitochondrial suspension was then incubated with 25 μM NADH, and the absorbance at 340 nm monitored over a 15 minute period. The assay was repeated in the presence of erastin. To assess mitochondrial intactness, a parallel assay was run in which mitochondria were hypotonically shocked prior to addition of NADH. The mitochondrial pellet was resuspended in dH2O and incubated on ice for 3 minutes to disrupt the outer mitochondrial membrane. 2× R-buffer was then added to restore normal osmotic conditions."}, "[1]": {"experiment": "Stability in mouse plasma", "assay_type": "in vitro ADME", "conditions": "after five hours", "experimental": "The stability of erastin in mouse and human liver microsomes and in mouse and human plasma was assessed. In both human and mouse liver microsomes, after 1 hr, ˜30% of erastin was converted to its primary metabolite (the O-de-ethylated product). In both human and mouse plasma, only ˜10% of erastin was lost after five hours. Thus, erastin has sufficient metabolic and plasma stability to be tested in vivo in mice."}},
  "data": [
    {"smiles": "CCOc1ccccc1-n1c(C(C)N2CCN(C(=O)COc3ccc(Cl)cc3)CC2)nc2ccccc2c1=O", "note": "(stereo not drawn) [erastin, 2-(1-{4-[2-(4-Chloro-phenoxy)-acetyl]-piperazin-1-yl}-ethyl)-3-(2-ethoxy-phenyl)-3H-quinazolin-4-one]", "values": [
      {"measurement": "EC50", "setting": "SK-UT", "value": 4, "unit": "µM"},
      {"measurement": "Max % killing", "setting": "SK-UT; Uterine, mixed mesodermal tumor", "value": 73, "unit": "%"},
      {"measurement": "EC50", "setting": "Hs 925.T", "value": 17, "unit": "µM"},
      {"measurement": "Max % killing", "setting": "Hs 925.T; Pagetoid sarcoma", "value": 83, "unit": "%"},
      {"measurement": "Max % killing", "setting": "HCT 116", "value": 0, "unit": "%"},
      {"measurement": "Erastin Sensitivity (maximum percent killing, as fraction)", "setting": "TC71; TC 71", "value": 0.92},
      {"measurement": "Max % killing", "setting": "TC71; TC71, Ewing sarcoma", "value": 92, "unit": "%"},
      {"measurement": "EC50", "setting": "TC71; TC-71, TC71", "value": 10, "unit": "µM"},
      {"measurement": "EC50", "setting": "HOS; Homo sapiens", "value": 17, "unit": "µM"},
      {"measurement": "Max % killing", "setting": "HOS; Osteosarcoma", "value": 100, "unit": "%"},
      {"measurement": "EC50", "setting": "SK-ES-1; Homo sapiens, SK-ES1, SK-ES-1", "value": 7, "unit": "µM"},
      {"measurement": "Max % killing", "setting": "SK-ES-1; SK-ES-1, Ewing sarcoma", "value": 96, "unit": "%"},
      {"measurement": "Erastin Sensitivity (maximum percent killing, as fraction)", "setting": "SK-ES-1; SKES1", "value": 0.96},
      {"measurement": "Max % killing", "setting": "A549", "value": 0, "unit": "%"},
      {"measurement": "EC50", "setting": "Hs51.T", "value": 12, "unit": "µM"},
      {"measurement": "Max % killing", "setting": "Hs51.T; Spindle cell sarcoma", "value": 88, "unit": "%"},
      {"measurement": "EC50", "setting": "LNCaP; Homo sapiens", "value": 6, "unit": "µM"},
      {"measurement": "Max % killing", "setting": "LNCaP; prostate carcinoma", "value": 32, "unit": "%"},
      {"measurement": "Erastin Sensitivity (maximum percent killing, as fraction)", "setting": "SW872; SW 872", "value": 0.00},
      {"measurement": "Max % killing", "setting": "SW872; SW872, Liposarcoma", "value": 0, "unit": "%"},
      {"measurement": "Erastin Sensitivity (maximum percent killing, as fraction)", "setting": "HL-60; HL 60", "value": 0.00},
      {"measurement": "Max % killing", "setting": "HL-60; HL-60, acute promyelocytic leukemia", "value": 0, "unit": "%"},
      {"measurement": "EC50", "setting": "SK-N-MC; Homo sapiens, SK-N-MC", "value": 10, "unit": "µM"},
      {"measurement": "Erastin Sensitivity (maximum percent killing, as fraction)", "setting": "SK-N-MC; SK N MC", "value": 0.95},
      {"measurement": "Max % killing", "setting": "SK-N-MC; SK-N-MC, Neuroepithelioma", "value": 95, "unit": "%"},
      {"measurement": "EC50", "setting": "TC32; Homo sapiens, TC-32, TC32", "value": 8, "unit": "µM"},
      {"measurement": "Erastin Sensitivity (maximum percent killing, as fraction)", "setting": "TC32; TC 32", "value": 0.88},
      {"measurement": "Max % killing", "setting": "TC32; TC32, Peripheral neuroepithelioma", "value": 88, "unit": "%"},
      {"measurement": "Erastin Sensitivity (maximum percent killing, as fraction)", "setting": "U973; U937", "value": 0.73},
      {"measurement": "Max % killing", "setting": "U973; U973, Acute myelogenous leukemia", "value": 73, "unit": "%"},
      {"measurement": "EC50", "setting": "U973; U-973, U973", "value": 10, "unit": "µM"},
      {"measurement": "EC50", "setting": "SJSA-1; Homo sapiens, SJSA-1", "value": 12, "unit": "µM"},
      {"measurement": "Max % killing", "setting": "SJSA-1; SJSA-1, Osteosarcoma", "value": 100, "unit": "%"},
      {"measurement": "EC50", "setting": "MX2; MX2", "value": 18, "unit": "µM"},
      {"measurement": "Max % killing", "setting": "MX2; MX2, Uterine Sarcoma", "value": 71, "unit": "%"},
      {"measurement": "EC50", "setting": "SVR; Mus musculus", "value": 2500, "unit": "nM"},
      {"measurement": "Max % killing", "setting": "SVR; Pancreatic carcinoma", "value": 20, "unit": "%"},
      {"measurement": "EC50", "setting": "EWS502; EWS502", "value": 10, "unit": "µM"},
      {"measurement": "Erastin Sensitivity (maximum percent killing, as fraction)", "setting": "EWS502; EWS502", "value": 0.42},
      {"measurement": "Max % killing", "setting": "EWS502; EWS502, Ewing sarcoma", "value": 42, "unit": "%"},
      {"measurement": "Max % killing", "setting": "HeLa; Cervical carcinoma", "value": 94, "unit": "%"},
      {"measurement": "EC50", "setting": "HeLa; Homo sapiens", "value": 600, "unit": "nM"},
      {"measurement": "Max % killing", "setting": "SW982", "value": 0, "unit": "%"},
      {"measurement": "EC50", "setting": "SK-LMS-1; Homo sapiens, SK-LMS-1", "value": 6, "unit": "µM"},
      {"measurement": "Max % killing", "setting": "SK-LMS-1; SK-LMS-1, Leimyosarcoma, vulva", "value": 100, "unit": "%"},
      {"measurement": "Rate of NADH oxidation / permeability of outer mitochondrial membrane to NADH", "setting": "murine VDAC3", "value": "increases the permeability"},
      {"measurement": "Rate of NADH oxidation / permeability of outer mitochondrial membrane to NADH", "setting": "murine VDAC3; listed as Erastin", "value": "increased the rate of NADH oxidation"},
      {"measurement": "compound lost", "setting": "[1]", "value": "~10", "unit": "%"}
    ]}
  ]
}
